What is called Ki is the equilibrium dissociation constant of an inhibitor or competing ligand from its target.

For one assay, the target named is Rhesus PDE2A3 (Macaca mulatta, UniProt B3VTJ2). Put plainly: PDE2 fluorescence polarization (IMAP FP) inhibition assay, rhesus enzyme. The class given is biochemical, rhesus macaque. On the procedure: (§1) The activity of the compounds in accordance with the present invention as PDE2 inhibitors may be readily determined using a fluorescence polarization (FP) methodology (Huang, W., et al., J. Biomol Screen, 2002, 7: 215).
In a typical experiment the PDE2 inhibitory activity of the compounds of the present invention was determined in accordance with the following experimental method. Rhesus PDE2A3 was amplified from rhesus macaque brain cDNA (Biochain Institute, Hayward, Calif.) using primers based on human PDE2A sequence (accession NM_002599.3) where the forward primer containing a Kozak consensus was 5′-[…]-3′ and the reverse primer was 5′-[…]-3′. Amplification with Easy-A High-Fidelity PCR cloning enzyme (Stratagene, La Jolla, Calif.) was 95° C. for 2 minutes followed by thirty three cycles of 95° C. for 40 seconds, 52° C. for 30 seconds, and 72° C. for 2 minutes 48 seconds. Final extension was 72° C. for 7 minutes. The PCR product was TA cloned into pcDNA3.3-TOPO (Invitrogen, Carlsbad, Calif.) according to standard protocol. A consensus sequence was developed from multiple clones and then deposited into GenBank (EU812167). AD293 cells (Stratagene, La Jolla, Calif.) with 70-80% confluency were transiently transfected with rhesus PDE2A3/pcDNA3.3-TOPO using Lipofectamine 2000 according to manufacturer specifications (Invitrogen, Carlsbad, Calif.). Cells were harvested 48 hours post-transfection and lysed by sonication (setting 3, 10×5 sec pulses) in a buffer containing 20 mM HEPES pH 7.4, 1 mM EDTA and Complete Protease Inhibitor Cocktail Tablets (Roche, Indianapolis, Ind.). Lysate was collected by centrifugation at 75,000×g for 20 minutes at 4° C. and supernatant utilized for evaluation of PDE2 activity. The fluorescence polarization assay for cyclic nucleotide phosphodiesterases was performed using an IMAP® FP kit supplied by Molecular Devices, Sunnyvale, Calif. (product # R8139). […] Assays were performed at room temperature in 384-well microtiter plates with an incubation volume of 20.2 μL. Solutions of test compounds were prepared in DMSO and serially diluted with DMSO to yield 8 μL of each of 10 solutions differing by 3-fold in concentration, at 32 serial dilutions per plate. […] 0% of inhibition is determined by using DMSO (1% final concentrations).
A Labcyte Echo 555 (Labcyte, Sunnyvale, Calif.) is used to dispense 200 nL from each well of the titration plate to the 384 well assay plate. Ten microliters of a solution of enzyme (1/2000 final dilution from aliquots; sufficient to produce 20% substrate conversion) was added to the assay plate. Next 10 uL of a separate solution of the substrate FAM-labeled cAMP (50 nM final concentration product # R7506 from Molecular Devices) and the activator cGMP (1 uM final concentration), prepared in the assay buffer (10 mM Tris HCl, pH 7.2, 10 mM MgCl2, 0.05% NaN3 0.01% Tween-20, and 1 mM DTT) was added to the assay plate and shaken to mix. The reaction is allowed to proceed at room temperature for 60 minutes. A binding solution is then made from the kit components, comprised of 80% Solution A, 20% Solution B and binding reagent at a volume of 1/600 the total binding solution. The enzymatic reaction is stopped by addition of 60 μL of the binding solution to each well of the assay plates and the plates are sealed and shaken for 30 seconds. The plate was incubated at room temperature for at least one hour prior to determining the fluorescence polarization (FP). The parallel and perpendicular fluorescence of each well of the plate was measured using a Tecan Genios Pro plate reader (Tecan, Switzerland) or Perkin Elmer EnVision™ plate reader (Waltham, Mass.). Fluorescence polarization (mP) was calculated from the parallel (S) and perpendicular (P) fluorescence of each sample well and the analogous values for the median control well, containing only substrate (So and Po), using the following equation: Polarization (mP)=1000*(S/So−P/Po)/(S/So+P/Po).
On the technique in general: In fluorescence polarisation assays a small probe gives low polarisation when free and higher when bound to something large.

For another assay, the target named is human PDE2A1 (Homo sapiens (Human), UniProt O00408). Put plainly: PDE2 fluorescence polarization (IMAP FP) inhibition assay, human enzyme. The class given is biochemical. On the procedure:
as §1
Selectivity for PDE2, as compared to other PDE families, was assessed using the IMAPR technology. Human PDE10A2 enzyme was prepared from cytosolic fractions of transiently transfected HEK cells. All other PDE's were GST Tag human enzyme expressed in insect cells and were obtained from BPS Bioscience (San Diego, Calif.): PDE1A (Cat#60010), human PDE2A1(Cat#60020), PDE3A (Cat#60030), PDE4A1A (Cat#60040), PDE5A1 (Cat#60050), PDE6C (Cat#60060), PDE7A (Cat#60070), PDE8A1 (Cat#60080), PDE9A2 (Cat#60090), PDE11A4 (Cat#60110).
Assays for PDE 1 through 11 were performed in parallel at room temperature in 384-well microtiter plates with an incubation volume of 20.2 μL. Solutions of test compounds were prepared in DMSO and serially diluted with DMSO to yield 30 μL of each of ten solutions differing by 3-fold in concentration, at 32 serial dilutions per plate. […] A Labcyte POD 810 (Labcyte, Sunnyvale, Calif.) was used to dispense 200 nL from each well of the titration plate to make eleven copies of the assay plate for each titration, one copy for each PDE enzyme. A solution of each enzyme (dilution from aliquots, sufficient to produce 20% substrate conversion) and a separate solution of FAM-labeled cAMP or FAM-labeled cGMP from Molecular Devices (Sunnyvale, Calif., product # R7506 or cGMP#R7508), at a final concentration of 50 nM were made in the assay buffer (10 mM Tris HCl, pH 7.2, 10 mM MgCl2, 0.05% NaN3 0.01% Tween-20, and 1 mM DTT). Note that the substrate for PDE2 is 50 nM FAM cAMP containing 1000 nM of cGMP. The enzyme and the substrate were then added to the assay plates in two consecutive additions of 10 μL and then shaken to mix. The reaction was allowed to proceed at room temperature for 60 minutes. A binding solution was then made from the kit components, comprised of 80% Solution A, 20% Solution B and binding reagent at a volume of 1/600 the total binding solution. The enzymatic reaction was stopped by addition of 60 μL of the binding solution to each well of the assay plate. The plates were sealed and shaken for 10 seconds. The plates were incubated at room temperature for one hour, then the parallel and perpendicular fluorescence was measured using a Tecan Genios Pro plate reader (Tecan, Switzerland). The apparent inhibition constants for the compounds against all 11 PDE's was determined from the parallel and perpendicular fluorescent readings as described for PDE10 FP assay using the following apparent KM values for each enzyme and substrate combination: PDE1A (FAM cGMP) 70 nM, human PDE2A1 (FAM cAMP) 10,000 nM, PDE3A (FAM cAMP) 50 nM, PDE4A1A (FAM cAMP) 1500 nM, PDE5A1 (FAM cGMP) 400 nM, PDE6C (FAM cGMP) 700 nM, PDE7A (FAM cAMP) 150 nM, PDE8A1 (FAM cAMP) 50 nM, PDE9A2 (FAM cGMP) 60 nM, […] (FAM cAMP) 150 nM, PDE11A4 (FAM cAMP) 1000 nM. The intrinsic PDE2 inhibitory activity of a compound which may be used in accordance with the present invention may be determined by these assays. […]

[1] abbreviates: LabA, read-out: rhPDE2 Ki (nM) LabA.
Setting [2] is: LabB, read-out: rhPDE2 Ki (nM) LabB.
Setting [3] is: LabA, read-out: hPDE2 Ki (nM) LabA.
The mark [4] stands for this setting: LabB, read-out: hPDE2 Ki (nM) LabB.

SMILES strings stand for the structures. Like-named read-outs stand apart in the source and are kept apart here.

Rhesus PDE2A3, sequence (B3VTJ2 1-941): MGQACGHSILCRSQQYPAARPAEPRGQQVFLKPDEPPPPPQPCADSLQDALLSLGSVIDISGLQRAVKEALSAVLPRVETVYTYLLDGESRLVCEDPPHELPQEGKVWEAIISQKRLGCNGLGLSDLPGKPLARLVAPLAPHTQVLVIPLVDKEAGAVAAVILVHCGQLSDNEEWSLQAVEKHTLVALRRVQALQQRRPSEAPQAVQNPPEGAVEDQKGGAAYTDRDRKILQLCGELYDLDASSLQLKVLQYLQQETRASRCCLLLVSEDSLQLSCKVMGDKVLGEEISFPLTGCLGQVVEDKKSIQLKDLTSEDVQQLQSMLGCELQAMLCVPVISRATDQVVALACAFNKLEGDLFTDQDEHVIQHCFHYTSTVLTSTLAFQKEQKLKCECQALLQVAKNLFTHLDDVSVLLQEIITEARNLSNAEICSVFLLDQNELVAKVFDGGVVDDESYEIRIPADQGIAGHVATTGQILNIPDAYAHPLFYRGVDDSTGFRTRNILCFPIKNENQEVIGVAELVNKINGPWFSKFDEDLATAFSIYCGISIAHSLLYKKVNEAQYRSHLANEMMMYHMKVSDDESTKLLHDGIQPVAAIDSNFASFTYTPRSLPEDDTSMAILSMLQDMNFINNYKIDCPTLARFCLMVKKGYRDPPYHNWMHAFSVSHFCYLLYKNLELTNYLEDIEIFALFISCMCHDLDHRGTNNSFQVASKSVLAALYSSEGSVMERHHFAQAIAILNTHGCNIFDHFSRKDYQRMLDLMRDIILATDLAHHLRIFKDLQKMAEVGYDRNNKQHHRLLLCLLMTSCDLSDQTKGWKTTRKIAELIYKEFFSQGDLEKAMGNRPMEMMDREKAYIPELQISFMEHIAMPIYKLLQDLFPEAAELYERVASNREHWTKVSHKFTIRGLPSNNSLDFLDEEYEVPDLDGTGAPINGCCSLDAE
human PDE2A1, sequence (O00408 other isoform, or with tags, fused parts or gaps): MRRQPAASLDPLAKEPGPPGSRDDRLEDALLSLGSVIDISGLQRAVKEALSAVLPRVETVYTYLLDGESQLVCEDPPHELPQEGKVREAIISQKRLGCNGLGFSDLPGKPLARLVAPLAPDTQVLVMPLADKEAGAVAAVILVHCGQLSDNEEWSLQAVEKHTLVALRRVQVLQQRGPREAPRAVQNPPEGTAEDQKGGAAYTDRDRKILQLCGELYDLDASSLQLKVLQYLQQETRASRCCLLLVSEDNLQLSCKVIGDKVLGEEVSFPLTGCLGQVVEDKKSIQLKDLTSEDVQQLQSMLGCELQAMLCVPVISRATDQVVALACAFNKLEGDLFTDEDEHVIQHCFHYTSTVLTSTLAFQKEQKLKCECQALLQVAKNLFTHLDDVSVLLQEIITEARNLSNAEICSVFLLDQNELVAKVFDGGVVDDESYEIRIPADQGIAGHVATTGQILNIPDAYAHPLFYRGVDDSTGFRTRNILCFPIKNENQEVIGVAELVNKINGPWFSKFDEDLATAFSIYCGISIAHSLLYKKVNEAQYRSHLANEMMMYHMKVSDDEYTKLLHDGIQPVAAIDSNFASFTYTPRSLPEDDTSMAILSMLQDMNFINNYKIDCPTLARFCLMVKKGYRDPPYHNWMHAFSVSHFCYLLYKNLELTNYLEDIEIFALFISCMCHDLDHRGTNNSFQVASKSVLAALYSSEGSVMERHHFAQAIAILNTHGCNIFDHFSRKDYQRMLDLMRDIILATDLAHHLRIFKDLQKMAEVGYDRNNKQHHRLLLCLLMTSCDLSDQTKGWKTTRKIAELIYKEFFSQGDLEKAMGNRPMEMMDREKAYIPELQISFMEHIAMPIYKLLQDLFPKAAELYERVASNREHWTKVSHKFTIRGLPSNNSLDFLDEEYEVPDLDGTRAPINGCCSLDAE

Regarding `Cc1nc(-c2nnc([C@H](C)c3ccc(C(F)(F)F)cc3)s2)cc(=O)[nH]1` (single isomer, unassigned) [Example 7], the inhibition constant Ki was 21 nM at Rhesus PDE2A3 (setting [1]), 57 nM on Rhesus PDE2A3 (setting [2]), 13 nM on human PDE2A1 (setting [3]) and 62 nM on human PDE2A1 (setting [4]).

In the case of `Cc1nc(-c2nnc([C@H](C)c3ccc(C(F)(F)F)cc3)o2)cc(=O)[nH]1` (single isomer, unassigned) [Example 9], the figures for the inhibition constant Ki on Rhesus PDE2A3 (setting [1]), at Rhesus PDE2A3 (setting [2]) and on human PDE2A1 (setting [3]) were 86 nM, 159 nM and 79 nM, respectively.

`Cc1nc(-c2cn([C@H](C)c3ccc(C(F)(F)F)cc3F)cn2)cc(=O)[nH]1` (single isomer, unassigned) [Example 15]: the Ki on Rhesus PDE2A3 (setting [1]) was 24 nM; at Rhesus PDE2A3 (setting [2]), 46 nM; on human PDE2A1 (setting [3]) it was 21 nM.

Take `Cc1nc(-c2cn(C(C)c3ccc(C(F)(F)F)cc3)cn2)cc(=O)[nH]1` (single isomer, unassigned) [Example 17, (R)- or (S)-2-methyl-6-(1-(1-(4-(trifluoro-methyl)phenyl)ethyl)-1H-imidazol-4-yl) pyrimidin-4 (3H)-one]: the Ki came out at 106 nM on Rhesus PDE2A3 (setting [1]) and 76 nM at human PDE2A1 (setting [3]).

Take `COc1ccc(Cc2nc(-c3cn(C(C)c4ccc(C(F)(F)F)cc4F)cn3)cc(=O)[nH]2)cc1OC` (single isomer, unassigned) [Example 18, (R)- or (S)-2-(3,4-dimethoxy-benzyl)-6-(1-(1-(2-fluoro-4-(trifluoromethyl)phenyl)ethyl)-1H-imidazol-4-yl)pyrimidin-4(3H)-one]: the Ki on Rhesus PDE2A3 (setting [1]) came out at 2.3 nM; at human PDE2A1 (setting [3]), 1.4 nM.

For the compound `COc1ccc(Cc2nc(-c3cn(C(C)c4ccc(C(F)(F)F)cc4F)cn3)cc(=O)[nH]2)cc1OC` (single isomer, unassigned) [Example 19, (R)- or (S)-2-(3,4-dimethoxy-benzyl)-6-(1-(1-(2-fluoro-4-(trifluoromethyl)phenyl)ethyl)-1H-imidazol-4-yl)pyrimidin-4(3H)-one], the Ki amounted to 0.2 nM on Rhesus PDE2A3 (setting [1]), 0.4 nM on Rhesus PDE2A3 (setting [2]) and 0.4 nM on human PDE2A1 (setting [4]).

Take `Cc1nc(-c2ncc(C(C)c3ccc(C(F)(F)F)cc3)s2)cc(=O)[nH]1` (stereo not drawn) [Example 1, 2-Methyl-6-(5-(1-(4-(trifluoromethyl)phenyl)ethyl)thiazol-2-yl)pyrimidin-4(3H)-one]: the Ki stood at 96 nM at Rhesus PDE2A3 (setting [1]), 481 nM on Rhesus PDE2A3 (setting [2]) and 60 nM on human PDE2A1 (setting [3]).

As for `Cc1nc(-c2ncc(C(C)c3ccc(C(F)(F)F)cc3)o2)cc(=O)[nH]1` (stereo not drawn) [Example 8, 2-Methyl-6-(5-(1-(4-(trifluoromethyl)phenyl)ethyl)oxazol-2-yl)pyrimidin-4(3H)-one], the results for the Ki on Rhesus PDE2A3 (setting [1]) and on human PDE2A1 (setting [3]) were 352 nM and 403 nM, respectively.

With `Cc1nc(-c2cc(=O)[nH]c(C)n2)cc(C(C)c2ccc(C(F)(F)F)cc2)n1` (stereo not drawn) [Example 48, 2,2′-dimethyl-6′-(1-(4-(trifluoromethyl)phenyl)ethyl)-[4,4′-bipyrimidin]-6(1H)-one], the Ki came to 516 nM at Rhesus PDE2A3 (setting [1]) and 312 nM at human PDE2A1 (setting [3]).

The values are drawn from patent US10195201B2, “Heteroaryl-pyrimidinone compounds as PDE2 inhibitors” (Merck Sharp & Dohme Corp., priority 2015, dated 2019).
